In PMC11971462, “Generation and validation of a novel multitarget small molecule in glioblastoma” (Cell Death & Disease, 2025):

Tested on: GNS166 cells
Assay: Label-free proteomics differential expression
Assay type: cell-based, human
Description: Proteomic studies were performed by the Proteomics Facility of the CIC bioGUNE by label-free relative quantification on nLC MS/MS. […] In both approaches, the top 20 enriched terms were plotted and the pathways were clustered using divisive hierarchical clustering based on pairwise Jaccard distances.

C#CCN(Cc1cc2cc(OCCCN3CCCCC3)ccc2n1S(=O)(=O)c1ccccc1)C(=O)CCCCCCC(=O)NO [DDI]
Direction TENS3_HUMAN (protein Q68CZ2): Down
LogFC TENS3_HUMAN (protein Q68CZ2): -3.364
LogFC LARP4_HUMAN (protein Q71RC2 GN=LARP4): 0.7689
LogFC PEG10_HUMAN (protein Q86TG7 GN=PEG10): 3.16
LogFC SETD3_HUMAN (protein Q86TU7 GN=SETD3): 0.5021
Direction ACOT1_HUMAN (protein Q86TX2): Down
LogFC ACOT1_HUMAN (protein Q86TX2): -1.83
LogFC PABP2_HUMAN (protein Q86U42 GN=PABPN1): -1.1218
Direction PB1_HUMAN (protein Q86U86): Down
LogFC PB1_HUMAN (protein Q86U86): -2.078
Direction PHLB1_HUMAN (protein Q86UU1): Down
LogFC PHLB1_HUMAN (protein Q86UU1): -2.257
Direction DTX2_HUMAN (protein Q86UW9): Down
LogFC DTX2_HUMAN (protein Q86UW9): -1.305
LogFC LUZP1_HUMAN (protein Q86V48 GN=LUZP1): 0.5884
LogFC THOC4_HUMAN (protein Q86V81 GN=ALYREF): -0.9542
Direction IQGA3_HUMAN (protein Q86VI3): Down
LogFC IQGA3_HUMAN (protein Q86VI3): -2.742
Direction MET16_HUMAN (protein Q86W50): Down
LogFC MET16_HUMAN (protein Q86W50): -1.7557
LogFC CCD25_HUMAN (protein Q86WR0 GN=CCDC25): 2.202
LogFC NIT1_HUMAN (protein Q86X76 GN=NIT1): 0.9607
Direction CNDG2_HUMAN (protein Q86XI2): Down
LogFC CNDG2_HUMAN (protein Q86XI2): -2.11
Direction ANKL2_HUMAN (protein Q86XL3): Down
LogFC ANKL2_HUMAN (protein Q86XL3): -0.7885
LogFC DDX42_HUMAN (protein Q86XP3 GN=DDX42): -0.6019
Direction VRK2_HUMAN (protein Q86Y07): Down
LogFC VRK2_HUMAN (protein Q86Y07): -1.564
LogFC RAB43_HUMAN (protein Q86YS6 GN=RAB43): -1.528
Direction RFT1_HUMAN (protein Q96AA3): Down
LogFC RFT1_HUMAN (protein Q96AA3): -0.9928
Direction TTC17_HUMAN (protein Q96AE7): Down
LogFC TTC17_HUMAN (protein Q96AE7): -1.296
LogFC PBIP1_HUMAN (protein Q96AQ6 GN=PBXIP1): 1.536
LogFC SARAF_HUMAN (protein Q96BY9 GN=SARAF): 2.225
LogFC ACSF2_HUMAN (protein Q96CM8 GN=ACSF2): 1.4396
LogFC GCP3_HUMAN (protein Q96CW5 GN=TUBGCP3): -1.184
LogFC RMXL1_HUMAN (protein Q96E39 GN=RBMXL1): 1.251
LogFC SGTB_HUMAN (protein Q96EQ0 GN=SGTB): 0.9619
Direction WDR34_HUMAN (protein Q96EX3): Down
LogFC WDR34_HUMAN (protein Q96EX3): -2.769
LogFC DYL2_HUMAN (protein Q96FJ2 GN=DYNLL2): 1.408
Direction CERS2_HUMAN (protein Q96G23): Down
LogFC CERS2_HUMAN (protein Q96G23): -1.352
Direction AURKB_HUMAN (protein Q96GD4): Down
LogFC AURKB_HUMAN (protein Q96GD4): -0.8936
Direction TOE1_HUMAN (protein Q96GM8): Down
LogFC TOE1_HUMAN (protein Q96GM8): -1.175
Direction ITCH_HUMAN (protein Q96J02): Down
LogFC ITCH_HUMAN (protein Q96J02): -0.7634
Direction TOPK_HUMAN (protein Q96KB5): Down
LogFC TOPK_HUMAN (protein Q96KB5): -2.0632
Direction EHMT2_HUMAN (protein Q96KQ7): Down
LogFC EHMT2_HUMAN (protein Q96KQ7): -1.8
Direction EP400_HUMAN (protein Q96L91): Down
LogFC EP400_HUMAN (protein Q96L91): -2.0331
Direction TRI47_HUMAN (protein Q96LD4): Down
LogFC TRI47_HUMAN (protein Q96LD4): -1.137
LogFC FXL18_HUMAN (protein Q96ME1 GN=FBXL18): 0.7929
LogFC DCBD2_HUMAN (protein Q96PD2 GN=DCBLD2): -0.7605
LogFC NED4L_HUMAN (protein Q96PU5 GN=NEDD4L): 1.365
LogFC S38A2_HUMAN (protein Q96QD8 GN=SLC38A2): 0.9305
Direction MCCA_HUMAN (protein Q96RQ3): Down
LogFC MCCA_HUMAN (protein Q96RQ3): -0.7659
Direction INT14_HUMAN (protein Q96SY0): Down
LogFC INT14_HUMAN (protein Q96SY0): -0.8896
Direction RSF1_HUMAN (protein Q96T23): Down
LogFC RSF1_HUMAN (protein Q96T23): -2.084
Direction UHRF1_HUMAN (protein Q96T88): Down
LogFC UHRF1_HUMAN (protein Q96T88): -2.206
Direction VIGLN_HUMAN (protein Q00341): Down
LogFC VIGLN_HUMAN (protein Q00341): -1.004
Direction PAR14_HUMAN (protein Q460N5): Down
LogFC PAR14_HUMAN (protein Q460N5): -1.711
LogFC CDK5_HUMAN (protein Q00535 GN=CDK5): 1.129
LogFC M17L2_HUMAN (protein Q567V2 GN=MPV17L2): 1.68
LogFC PURA_HUMAN (protein Q00577 GN=PURA): 0.4477
LogFC SFT2C_HUMAN (protein Q587I9 GN=SFT2D3): -1.885
LogFC ACD11_HUMAN (protein Q709F0 GN=ACAD11): -0.7894
LogFC CAP1_HUMAN (protein Q01518 GN=CAP1): 0.6335
Direction OTUD4_HUMAN (protein Q01804): Down
LogFC OTUD4_HUMAN (protein Q01804): -1.044
Direction BDH_HUMAN (protein Q02338): Down
LogFC BDH_HUMAN (protein Q02338): -0.9278
LogFC DSC2_HUMAN (protein Q02487 GN=DSC2): 2.478
LogFC AKA12_HUMAN (protein Q02952 GN=AKAP12): 2.896
LogFC KIME_HUMAN (protein Q03426 GN=MVK): -0.3731
Direction ERCC6_HUMAN (protein Q03468): Down
LogFC ERCC6_HUMAN (protein Q03468): -0.8508
Direction TAP1_HUMAN (protein Q03518): Down
LogFC TAP1_HUMAN (protein Q03518): -0.8528
Direction TAP2_HUMAN (protein Q03519): Down
LogFC TAP2_HUMAN (protein Q03519): -0.8847
Direction GLGB_HUMAN (protein Q04446): Down
LogFC GLGB_HUMAN (protein Q04446): -0.6914
Direction SRS11_HUMAN (protein Q05519): Down
LogFC SRS11_HUMAN (protein Q05519): -0.4029
Direction FOLC_HUMAN (protein Q05932): Down
LogFC FOLC_HUMAN (protein Q05932): -1.856
LogFC PUR1_HUMAN (protein Q06203 GN=PPAT): 0.9093
LogFC GFPT1_HUMAN (protein Q06210 GN=GFPT1): -0.4508
LogFC PRDX1_HUMAN (protein Q06830 GN=PRDX1): 1.081
Direction B2CL1_HUMAN (protein Q07817): Down
LogFC B2CL1_HUMAN (protein Q07817): -1.289
Direction RHG01_HUMAN (protein Q07960): Down
LogFC RHG01_HUMAN (protein Q07960): -0.6872
Direction AHNK_HUMAN (protein Q09666): Down
LogFC AHNK_HUMAN (protein Q09666): -0.5648
Direction CPSF1_HUMAN (protein Q10570): Down
LogFC CPSF1_HUMAN (protein Q10570): -0.5217
LogFC SCRN1_HUMAN (protein Q12765 GN=SCRN1): -0.7259
Direction CDC20_HUMAN (protein Q12834): Down
LogFC CDC20_HUMAN (protein Q12834): -2.397
